In PubChem BioAssay AID1259407 (Chemical Carcinogenesis Research Information System (CCRIS), 2018):
Calls of active or inactive are those of the source. No rule for the calls is given here.

Test system: CCRIS mutagenicity, Ames/micronucleus/aberration tests
Assay: CCRIS mutagenicity studies
[1] = Test System: AMES SALMONELLA TYPHIMURIUM, Strain/Indicator: TA98, Metabolic Activation: RAT, LIVER, S-9, AROCLOR 1254, Method: STANDARD PLATE

## C=O
End Point: IN VITRO CHROMOSOMAL ABERRATIONS, Test System: SYRIAN HAMSTER EMBRYO (SHE) CELLS, Metabolic Activation: NONE
  mutagenic call: active; positive (structural changes)
End Point: In vitro chromosomal aberrations, Test System: Chinese hamster ovary (CHO) cells, Metabolic Activation: None
  mutagenic call: active; positive
End Point: In vitro chromosomal aberrations, Test System: Chinese hamster ovary (CHO) cells, Metabolic Activation: S-9
  mutagenic call: active; positive
End Point: In vivo micronucleus, Test System: Peripheral blood erythrocytes, Species: Rat, Strain/Sex: F344/DuCrl / Male, Route: Inhalation
  mutagenic call: inactive; negative
Test System: AMES SALMONELLA TYPHIMURIUM, Strain/Indicator: TA97, Metabolic Activation: NONE, Method: PREINCUBATION
  mutagenic call: inactive; negative
Test System: AMES SALMONELLA TYPHIMURIUM, Strain/Indicator: TA97, Metabolic Activation: NONE, Method: STANDARD PLATE
  mutagenic call: active; positive
Test System: AMES SALMONELLA TYPHIMURIUM, Strain/Indicator: TA98, Metabolic Activation: RAT, LIVER, S-9, AROCLOR 1254, Method: PREINCUBATION
  mutagenic call: active; positive
[1]
  mutagenic call: active; positive
Test System: AMES SALMONELLA TYPHIMURIUM, Strain/Indicator: TA100, Metabolic Activation: MOUSE LIVER S-9, AROCLOR 1254, Method: PREINCUBATION
  mutagenic call: active; positive
Test System: AMES SALMONELLA TYPHIMURIUM, Strain/Indicator: TA100, Metabolic Activation: NONE, Method: SUSPENSION
  mutagenic call: active; positive
Test System: AMES SALMONELLA TYPHIMURIUM, Strain/Indicator: TA100, Metabolic Activation: RAT LIVER S-9, AROCLOR 1254, Method: PREINCUBATION
  mutagenic call: active; positive
Test System: AMES SALMONELLA TYPHIMURIUM, Strain/Indicator: TA100, Metabolic Activation: RAT, LIVER, S-9, AROCLOR 1254, Method: STANDARD PLATE
  mutagenic call: active; positive
Test System: AMES SALMONELLA TYPHIMURIUM, Strain/Indicator: TA100, Metabolic Activation: RAT, LIVER, S-9, AROCLOR 1254, Method: SUSPENSION
  mutagenic call: active; positive
Test System: AMES SALMONELLA TYPHIMURIUM, Strain/Indicator: TA100, Metabolic Activation: RAT, LIVER, S-9, AROCLOR, Method: STANDARD PLATE
  mutagenic call: active; positive
Test System: AMES SALMONELLA TYPHIMURIUM, Strain/Indicator: TA102, Metabolic Activation: NONE, Method: FLUCTUATION TEST
  mutagenic call: active; positive
Test System: AMES SALMONELLA TYPHIMURIUM, Strain/Indicator: TA102, Metabolic Activation: NONE, Method: PREINCUBATION
  mutagenic call: active; positive
Test System: AMES SALMONELLA TYPHIMURIUM, Strain/Indicator: TA104, Metabolic Activation: MOUSE LIVER S-9, AROCLOR 1254, Method: PREINCUBATION
  mutagenic call: active; positive
Test System: AMES SALMONELLA TYPHIMURIUM, Strain/Indicator: TA104, Metabolic Activation: NONE, Method: PREINCUBATION
  mutagenic call: active; positive
Test System: AMES SALMONELLA TYPHIMURIUM, Strain/Indicator: TA104, Metabolic Activation: RAT LIVER S-9, AROCLOR 1254, Method: PREINCUBATION
  mutagenic call: active; positive
Test System: AMES SALMONELLA TYPHIMURIUM, Strain/Indicator: TA104, Metabolic Activation: RAT, LIVER, S-9, AROCLOR 1254, Method: PREINCUBATION
  mutagenic call: active; positive
Test System: AMES SALMONELLA TYPHIMURIUM, Strain/Indicator: TA1535, Metabolic Activation: NONE, Method: PREINCUBATION
  mutagenic call: inactive; negative
Test System: AMES SALMONELLA TYPHIMURIUM, Strain/Indicator: TA1535, Metabolic Activation: NONE, Method: STANDARD PLATE
  mutagenic call: inactive; negative
Test System: AMES SALMONELLA TYPHIMURIUM, Strain/Indicator: TA1535, Metabolic Activation: RAT, LIVER, S-9, AROCLOR 1254, Method: PREINCUBATION
  mutagenic call: inactive; negative
Test System: AMES SALMONELLA TYPHIMURIUM, Strain/Indicator: TA1535, Metabolic Activation: RAT, LIVER, S-9, AROCLOR 1254, Method: STANDARD PLATE
  mutagenic call: inactive; negative
Test System: AMES SALMONELLA TYPHIMURIUM, Strain/Indicator: TA1537, Metabolic Activation: NONE, Method: PREINCUBATION
  mutagenic call: inactive; negative
Test System: AMES SALMONELLA TYPHIMURIUM, Strain/Indicator: TA1537, Metabolic Activation: RAT, LIVER, S-9, AROCLOR 1254, Method: PREINCUBATION
  mutagenic call: inactive; negative
Test System: AMES SALMONELLA TYPHIMURIUM, Strain/Indicator: TA1537, Metabolic Activation: RAT, LIVER, S-9, AROCLOR 1254, Method: STANDARD PLATE
  mutagenic call: active; positive
Test System: AMES SALMONELLA TYPHIMURIUM, Strain/Indicator: TA1538, Metabolic Activation: NONE, Method: PREINCUBATION
  mutagenic call: inactive; negative
Test System: AMES SALMONELLA TYPHIMURIUM, Strain/Indicator: TA1538, Metabolic Activation: NONE, Method: STANDARD PLATE
  mutagenic call: inactive; negative
Test System: AMES SALMONELLA TYPHIMURIUM, Strain/Indicator: TA2638, Metabolic Activation: NONE, Method: STANDARD PLATE
  mutagenic call: active; positive
Test System: AMES SALMONELLA TYPHIMURIUM, Strain/Indicator: TA2638A, Metabolic Activation: NONE, Method: PREINCUBATION
  mutagenic call: active; positive
Test System: AMES SALMONELLA TYPHIMURIUM, Strain/Indicator: UTH8413, Metabolic Activation: NONE, Method: STANDARD PLATE
  mutagenic call: inactive; negative
Test System: AMES SALMONELLA TYPHIMURIUM, Strain/Indicator: UTH8413, Metabolic Activation: RAT, LIVER, S-9, AROCLOR, Method: STANDARD PLATE
  mutagenic call: inactive; negative
Test System: AMES SALMONELLA TYPHIMURIUM, Strain/Indicator: UTH8414, Metabolic Activation: NONE, Method: STANDARD PLATE
  mutagenic call: inactive; negative
Test System: AMES SALMONELLA TYPHIMURIUM, Strain/Indicator: UTH8414, Metabolic Activation: RAT, LIVER, S-9, AROCLOR, Method: STANDARD PLATE
  mutagenic call: inactive; negative
Test System: CHINESE HAMSTER OVARY, Strain/Indicator: CHO-K1 (HPRT)/6-THIOGUANINE, Metabolic Activation: NONE, Method: SUSPENSION
  mutagenic call: active; positive
Test System: CHINESE HAMSTER OVARY, Strain/Indicator: CHO-K1 (HPRT)/6-THIOGUANINE, Metabolic Activation: NONE, Method: SUSPENSION/PLATE
  mutagenic call: inactive; negative
Test System: CHINESE HAMSTER V-79, Strain/Indicator: V-79/6-THIOGUANINE, Metabolic Activation: NONE
  mutagenic call: active; positive
Test System: E. COLI, Strain/Indicator: 016 POLA, Metabolic Activation: NONE, Method: PREINCUBATION
  mutagenic call: inactive; negative
Test System: E. COLI, Strain/Indicator: H/R30R, Metabolic Activation: NONE, Method: PREINCUBATION
  mutagenic call: active; positive
Test System: E. COLI, Strain/Indicator: HS30R UVRA, Metabolic Activation: NONE, Method: PREINCUBATION
  mutagenic call: active; positive
Test System: E. COLI, Strain/Indicator: K12(AB1157) (WILD TYPE), Metabolic Activation: NONE, Method: SUSPENSION/PLATE
  mutagenic call: active; positive
Test System: E. COLI, Strain/Indicator: K12(AB1886) (UVRA), Metabolic Activation: NONE, Method: SUSPENSION/PLATE
  mutagenic call: inactive; negative
Test System: E. COLI, Strain/Indicator: K12(AB2480) (RECA/UVRA), Metabolic Activation: NONE, Method: SUSPENSION/PLATE
  mutagenic call: inactive; negative
Test System: E. COLI, Strain/Indicator: NG30 RECA, Metabolic Activation: NONE, Method: PREINCUBATION
  mutagenic call: inactive; negative
Test System: E. COLI, Strain/Indicator: WP2 (PKM101), Metabolic Activation: NONE, Method: PREINCUBATION
  mutagenic call: active; positive
Test System: E. COLI, Strain/Indicator: WP2, Metabolic Activation: NONE, Method: PREINCUBATION
  mutagenic call: active; positive
Test System: E. COLI, Strain/Indicator: WP2 UVRA (PKM101), Metabolic Activation: NONE, Method: PREINCUBATION
  mutagenic call: active; positive
Test System: E. COLI, Strain/Indicator: WP2 UVRA (PKM101), Metabolic Activation: NONE, Method: STANDARD PLATE
  mutagenic call: active; positive
Test System: E. COLI, Strain/Indicator: WP2 UVRA, Metabolic Activation: NONE, Method: PREINCUBATION
  mutagenic call: active; positive
Test System: MOUSE LYMPHOMA, Strain/Indicator: L5178Y (TK+/TK-), Metabolic Activation: NONE, Method: SUSPENSION/PLATE
  mutagenic call: active; positive

## COc1cc([N+](=O)[O-])ccc1N
Test System: AMES SALMONELLA TYPHIMURIUM, Strain/Indicator: TA98, Metabolic Activation: NONE, Method: STANDARD PLATE
  mutagenic call: active; positive
[1]
  mutagenic call: active; positive
